Source: patent publication US10449261B2, “Compositions targeting radiation-induced molecules and methods of use thereof” (Washington University, priority 2014, dated 2019)
Entries after “also recorded” stand apart in the source; their conditions may differ. Numbered stars: 1 amine (or outer) side, 2 acyl side, 3 side chain; on linkers, the order of the positions; unused ones are H or OH. Primed or numbered codes have the meaning given here. Ends that are not written are not given here. * marks the point of attachment. K(CHX-A″-DTPA) = O=C(O)CN(CC(=O)O)[C@H](Cc1ccc(NC(=S)NCCCC[C@H](N[*:1])C(=O)[*:2])cc1)CN(CC(=O)O)[C@H]1CCCC[C@@H]1N(CC(=O)O)CC(=O)O; FITC = O=C1OC2(c3ccc(O)cc3Oc3cc(O)ccc32)c2ccc(NC(=S)*)cc21; DTPA = O=C(O)CN(CCN(CC(=O)O)CC(=O)O)CCN(CC(=O)O)CC(=O)*; PEG = not defined here; AEEA = NCCOCCOCC(=O)O

How the values were obtained:
HT3 (cervical) = test: Binding of FITC-conjugated GIRLRG to cancer cells (fluorescent microscope); type: cell-based; conditions: 10 μg/ml, 2 h, 37° C.
Method: (§1) Four cancer cell lines D54 (glioma), HT3 (cervical), OE33 (eosophageal) and A549 (lung cancer) were used to evaluate binding of GIRLRG (SEQ ID NO:1) peptide. Cancer cells were incubated with FITC-conjugated GIRLRG (SEQ ID NO:1) peptide and fluorescent images were acquired using a fluorescent microscope.
(§2) Cell Lines: Human lung adenocarcinoma A549 and Human glioblastoma D54 cells were cultured in DMEM/F12, human esophageal carcinoma OE33 cells in RPMI and HT3 cells in IMDM media supplemented with 10% fetal bovine serum, penicillin and streptomycin. They were maintained at 37° C. in a 5% CO2 incubator.
(§3) Immunofluorescence: Cancer cells (A549, HT3, D54 and OE33) were grown on chamber slides (Millipore, USA) and incubated with 10 μg/ml FITC-GIRLRG (SEQ ID NO:1) peptide for 2 h at 37° C. in a CO2 incubator. The cells were then washed with PBS to remove unbound peptide and fixed with 4% paraformaldehyde at room temperature. The nuclei were stained with DAPI and fluorescent images were captured using a Carl Zeiss microscope (Tokyo, Japan).

OE33 (eosophageal) = test: as above; type: cell-based, human; conditions: 10 μg/ml, 2 h, 37° C.
Method: as §1, §2, §3

D54 (glioma) = test: as above; type: cell-based, human; conditions: 10 μg/ml, 2 h, 37° C.
Method: as §1, §2, §3

A549 (lung cancer) = test: as above; type: cell-based, human; conditions: 10 μg/ml, 2 h, 37° C.
Method: as §1, §2, §3

[1] = test system: cervical (HT3) heterotopic tumors; conditions: for effect of tumor irradiation on tumor binding: HT3, right hind limb 3 fractions of 3 Gy vs sham left
Method: (§7) Nude mice bearing the HT3 and OE33 tumors in both the hind limbs were used (˜1 cm^3). Since radiotherapy is used in treating cervical and esophageal cancers, we also irradiated the tumors. The tumor on the right hind limb was irradiated with 3 fractions of 3 Gy over a course of 24 h, the tumor on the left hind limb was used as sham control. The mice were then injected with 500 μCi (10 μCi/μg) of radiolabeled peptide via tail vein. SPECT/CT imaging was performed at 48 and 72 h post injection.
(§8) Tumor models were established in 6 to 8-week-old female athymic nude mice obtained from Harlan laboratories (USA). Heterotopic tumors were induced by sub-cutaneously injecting tumor cells (1-3×10^6) into hind limbs of athymic nude mice. The tumors were grown until a size of 1 cm^3 before using the mice for SPECT imaging.
(§9) Whole body SPECT images were obtained at 48 and 72 h post injection (p.i.) using a NanoSPECT/CT imager (Bioscan Inc., Washington, D.C., USA) fitted with 2 mm pinhole collimators in helical scanning mode. Mice were placed in prone position and scanned under anesthesia (0.5 L/min 1.5% isoflurane in air). A 45-keV helical CT scan was performed first and then the SPECT acquisition was performed at 24 projections and 60 s per projection, for a total scan time of about 45 min. Tomographic data were reconstructed iteratively with the manufacturer-supplied InVivoScope and HiSPECT software for CT and SPECT, respectively.
(§10) After scanning, 96 h p.i., the bio-distribution of the labelled peptide in various organs was determined. The animals were sacrificed and organs of interest including blood were dissected/collected, weighed, and counted in a gamma counter along with a standard of the injected activity to allow calculation of the injected dose per organ (% ID/organ).

[2] = test system: esophageal (OE33) heterotopic tumors; test: NanoSPECT/CT imaging and post-SPECT biodistribution in tumor bearing nude mice; conditions: for effect of tumor irradiation on tumor binding: OE33, right hind limb 3 fractions of 3 Gy vs sham left; for tumor uptake, post-SPECT biodistribution, compared to control peptide: OE33 tumor bearing mice, 96 h after injection; for tumor binding by SPECT imaging: OE33 tumors, 48 h and 72 h post injection, 500 μCi via tail vein
Method: as §7, §8, §9, §10

[3] = test system: glioblastoma (D54) tumors; test: SPECT/CT imaging of tumor models; type: in vivo, mice; conditions: right hind limb 3 doses of 3 Gy
Excerpt: (§4) In addition we also screened lung cancer (A549), pancreatic cancer (BxPC3) and glioblastoma (D54) tumor models for binding of radiolabeled GIRLRG (SEQ ID NO:1) peptide.

[4] = test system: lung cancer (A549) tumors; test: SPECT/CT imaging of tumor models; type: in vivo, mice; conditions: right hind limb 3 doses of 3 Gy
Excerpt: as §4

[5] = test system: pancreatic cancer (BxPC3) tumors; test: SPECT/CT imaging of tumor models; type: in vivo, mice; conditions: right hind limb 3 doses of 3 Gy
Excerpt: as §4

cancer = test: Optimisation of the peptide construct: circulation and cancer binding; conditions: in vivo
Excerpt: The GIRLRG (SEQ ID NO:1) peptide conjugated to a poly-lysine linker for DOTA and DTPA conjugation was first studied. […] The duration of tumor binding was improved by PEGylation, with longer circulation times and prolonged imaging in cancer. […] Both PEG20 and PEG40 are effective at enhancing prolonged binding in cancer. […]

brain tumors = test: SPECT imaging of 111In-labeled PEG-GIRLRG (Example 1); type: in vivo, mouse; conditions: 72 hours following administration, 3 Gy vs 0Gy
Method: (§5) The right hind limb tumor was treated with 3 Gy and left hind limb tumor is an untreated (0Gy) internal control in the same mouse.

cervix tumors = test: as above; type: in vivo, mouse; conditions: 72 hours following administration, 3 Gy vs 0Gy
Method: as §5

esophageal tumors = test: as above; type: in vivo, mouse; conditions: 72 hours following administration, 3 Gy vs 0Gy
Method: as §5

[6] = test system: irradiated mouse A549 tumors; test: SPECT imaging and gamma emission of organs and tumors (Example 1); type: in vivo, mice; conditions: A549 tumors, 7 days after administration
Method: (§6) SPECT images of the spatial and temporal pharmacokinetics of ^111In-labeled PEG-GIRLRG and ^111In-labeled control peptide within irradiated mouse A549 tumors is shown in FIG. 1. At 7 days after administration, gamma emission from each of the organs and tumors of mice injected with PEG-GIRLRG (SEQ ID NO:1) and PEG-control peptide was measured (FIG. 2).

irradiated A549 tumors = test: as above; type: in vivo, mice; conditions: mice with A549 tumors, 3 Gy
Method: as §6

[7] = Size and aggregation of pegylated peptides (dynamic light scattering); type: physicochemical
[8] = target: T1, recombinant eukaryotic GRP78 protein (Prospec, USA) (UniProt P11021 19-654, limits assumed); test: SPR (BIAcore 2000), GRP78 amine-coupled on a CM4 chip, peptide as analyte at 0.313-10 mM, 25 C, HBS-EP
T1 construct: Immobilised by amine coupling on a CM4 chip; also called Glucose-regulated protein 78 kDa; Glucose Regulatory Protein-78
T1 sequence (P11021 19-654 limits assumed): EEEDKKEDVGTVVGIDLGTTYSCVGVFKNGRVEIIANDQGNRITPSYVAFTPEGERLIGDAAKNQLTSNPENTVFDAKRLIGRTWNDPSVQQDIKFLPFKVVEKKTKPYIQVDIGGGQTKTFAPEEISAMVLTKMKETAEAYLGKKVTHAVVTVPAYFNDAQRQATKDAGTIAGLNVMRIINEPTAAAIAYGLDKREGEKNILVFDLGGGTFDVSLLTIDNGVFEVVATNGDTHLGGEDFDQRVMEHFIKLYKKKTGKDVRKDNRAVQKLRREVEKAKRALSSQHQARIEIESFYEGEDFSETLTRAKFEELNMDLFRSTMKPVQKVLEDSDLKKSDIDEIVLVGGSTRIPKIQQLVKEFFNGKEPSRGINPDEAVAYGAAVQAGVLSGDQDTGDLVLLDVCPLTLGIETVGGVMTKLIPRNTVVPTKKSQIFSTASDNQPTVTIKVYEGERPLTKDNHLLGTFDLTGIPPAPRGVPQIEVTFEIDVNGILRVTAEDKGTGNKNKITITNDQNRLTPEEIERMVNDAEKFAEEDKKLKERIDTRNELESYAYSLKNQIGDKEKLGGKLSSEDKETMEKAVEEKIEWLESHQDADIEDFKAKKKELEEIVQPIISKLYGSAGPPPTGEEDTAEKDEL
Method: To determine the binding affinity of GIRLRG (SEQ ID NO:1) peptide to GRP78 protein, we used surface plasmon resonance technology. GRP78 protein was immobilized on the surface of CM4 sensor chip and approximately 7000 resonance Units (RUs) of GRP78 protein were immobilized (FIG. 6A). The GIRLRG (SEQ ID NO:1) peptide was dissolved in HBS-EP buffer at various concentrations (10, 5, 2.5, 1.25 and 0.313 mM) and passed over the immobilized GRP78 for 2 min (FIG. 6B). The rate constant K_D was obtained by fitting the sensogram data after reference subtraction (data from blank channel) using the BIA evaluation 3.0 software.
Surface Plasmon Resonance (SPR): Affinity of GIRLRG (SEQ ID NO:1) to GRP78 protein was measured by the biosensor-based SPR technique using an automatic apparatus BIAcore 2000 (GE healthcare, Sweden) as described earlier. The recombinant eukaryotic GRP78 protein (Prospec, USA) as ligand that was immobilized by amine coupling on the CM4 sensor surface and GIRLRG (SEQ ID NO:1) peptide was used as the analyte. Experiments were performed at 25° C. in HBS-EP buffer (GE healthcare). GRP78 protein was immobolized using surface preparation wizard for amine coupling. […] The affinity of the interaction was determined from the level of binding at equilibrium as a function of the sample concentrations by BIA evaluation software 3.0.

## FITC-GIRLRG: FITC-conjugated GIRLRG peptide ({FITC}-GIRLRG)
HT3 (cervical)
  binding to cancer cells: specifically bound
HT3 (cervical); listed as FITC labeled GIRLRG
  binding to cancer cells: showed binding
OE33 (eosophageal)
  binding to cancer cells: specifically bound
OE33 (eosophageal); listed as FITC labeled GIRLRG
  binding to cancer cells: showed binding
D54 (glioma)
  binding to cancer cells: specifically bound
D54 (glioma); listed as FITC labeled GIRLRG
  binding to cancer cells: showed binding
A549 (lung cancer)
  binding to cancer cells: specifically bound
A549 (lung cancer); listed as FITC labeled GIRLRG
  binding to cancer cells: showed binding

## GIRLRG [GIRLRG]
[1]
  effect of tumor irradiation on tumor binding: did not interfere with specific binding
[2]
  effect of tumor irradiation on tumor binding: did not interfere with specific binding

## ^111In-labeled PEG-DTPA-GIRLRG: PEG-GIRLRG radiolabeled with ^111Indium by use of DTPA as the chelator ({PEG-DTPA}-GIRLRG; reading uncertain; also: radiolabeled with 111In chelated by DTPA)
[1]
  effect of tumor irradiation on tumor binding: did not affect tumor binding
[1]; HT3 tumors, 48 h and 72 h post injection, 500 μCi via tail vein
  tumor binding by SPECT imaging: bound
[3]
  tumor binding by SPECT/CT imaging: enhanced binding
[4]
  tumor binding by SPECT/CT imaging: enhanced binding
[5]
  tumor binding by SPECT/CT imaging: enhanced binding
[2]
  effect of tumor irradiation on tumor binding: did not affect tumor binding
  tumor uptake, post-SPECT biodistribution, compared to control peptide: Significantly higher (p<0.001) uptake
  tumor binding by SPECT imaging: bound
cancer
  cancer binding: binds within irradiated cancers
Brain tumors
  cancer selective binding: cancer selective binding
Cervix tumors
  cancer selective binding: cancer selective binding
Esophageal tumors
  cancer selective binding: cancer selective binding

## mPEG40K-carbonyl-Lys(CHX-A″-DTPA)-AEEAc-Lys(CHX-A″-DTPA)-AEEAc-Trp-Lys(CHX-A″-DTPA)-AEEAc-GIRLRG ({mPEG40K‑carbonyl-K(CHX-A″-DTPA)-AEEA-K(CHX-A″-DTPA)-AEEA-Trp-K(CHX-A″-DTPA)-AEEA}-GIRLRG) [PEG-GIRLRG, GIRLRG peptide conjugated to 40 kDa PEG with DTPA as the chelator]
[6]
  tumor binding (gamma emission from organs and tumors): selectively bound to tumors
Irradiated A549 tumors
  binding to irradiated normal tissue: did not bind to irradiated normal tissue
[3]
  tumor binding by SPECT/CT imaging: specific binding; also recorded: Enhanced tumor binding
[4]
  tumor binding by SPECT/CT imaging: specific binding; also recorded: Enhanced tumor binding
[5]
  tumor binding by SPECT/CT imaging: specific binding; also recorded: Enhanced tumor binding
[2]
  tumor uptake, post-SPECT biodistribution, compared to control peptide: Significantly higher uptake
  tumor binding by SPECT imaging: specifically bound; also recorded: Enhanced tumor binding
[7]
  size: 8 nm
[7]; after heating / radiolabeling conditions
  aggregation: did not aggregate even after heating

B1: GIRLRG (SEQ ID NO:1) peptide (peptide)
peptide: GIRLRG
notes: Unconjugated synthetic hexapeptide, used as the analyte in SPR and as the ligand in the molecular model; also called lead peptide
[8]
  Kd: 2160 µM
